Where two headings read alike, the source gives them in different places.

For assay [1], the target named is T1, human CB-2 receptor (Homo sapiens, UniProt P34972).
T1 construct: expressed in transfected cells; host or cells: SK-N-MC cells, pcDNA3 CB-2 (human), semi-purified membranes
Kind of assay: Binding assay, cannabinoid CB2 receptor ([3H]-CP-55,940 displacement). The conditions noted are these: read-out: CB2 binding percent inhibition. An outline of the steps:
(§1)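 Displacement of 0.2 nM [3H]-CP-55,940 (non-specific: 10 uM WIN 55,212) was run on semi-purified membranes of transfected SK-N-MC cells carrying human CB-1 or CB-2, 90 min, 30° C, pH 7.5. Scintillation counting; IC50 by linear regression, else % inhibition at 0.2, 1 or 10 μM.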

Assay [2] concerns the target human CB1 receptor (Homo sapiens, UniProt P21554). Kind of assay: Binding assay, cannabinoid CB1 receptor ([3H]-CP-55,940 displacement). The conditions noted are these: for inhibition at 0.2 µM: test concentration 0.2 μM (superscript a). On the set-up: expressed in transfected cells; host or cells: SK-N-MC cells, pcDNA3 CB-1 (human), semi-purified membranes. A digest of the protocol: as §1

Setting [3] is: test concentration 0.2 μM (superscript a).
Where [4] appears, read: read-out: CB1 binding percent inhibition.

Sequence of human CB1 receptor (P21554 whole entry): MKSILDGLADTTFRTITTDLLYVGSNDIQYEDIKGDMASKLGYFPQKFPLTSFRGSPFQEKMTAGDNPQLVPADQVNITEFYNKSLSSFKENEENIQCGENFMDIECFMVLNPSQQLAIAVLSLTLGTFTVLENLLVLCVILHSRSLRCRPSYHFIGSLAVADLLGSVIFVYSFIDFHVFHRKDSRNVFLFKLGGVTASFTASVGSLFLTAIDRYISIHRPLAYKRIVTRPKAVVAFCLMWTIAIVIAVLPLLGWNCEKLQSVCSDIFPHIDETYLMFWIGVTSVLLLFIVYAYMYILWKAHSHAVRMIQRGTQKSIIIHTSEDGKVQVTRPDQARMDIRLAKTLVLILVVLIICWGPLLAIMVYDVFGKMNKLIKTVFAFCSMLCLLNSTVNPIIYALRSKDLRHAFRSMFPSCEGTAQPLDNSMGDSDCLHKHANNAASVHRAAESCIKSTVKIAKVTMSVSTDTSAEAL
T1 sequence (P34972 whole entry): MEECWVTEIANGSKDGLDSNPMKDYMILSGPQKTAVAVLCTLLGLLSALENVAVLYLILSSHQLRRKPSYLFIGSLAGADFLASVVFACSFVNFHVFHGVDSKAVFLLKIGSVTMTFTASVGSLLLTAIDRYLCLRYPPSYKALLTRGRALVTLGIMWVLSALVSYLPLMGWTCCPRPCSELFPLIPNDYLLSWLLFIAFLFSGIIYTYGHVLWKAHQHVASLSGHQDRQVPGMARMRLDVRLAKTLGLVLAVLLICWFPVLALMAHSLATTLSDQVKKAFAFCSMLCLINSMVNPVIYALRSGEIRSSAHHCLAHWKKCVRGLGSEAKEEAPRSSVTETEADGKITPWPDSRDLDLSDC

The term inhibition denotes the relative decrease from the control value, in per cent. For the compound `O=C(c1nn(-c2ccc(Cl)cc2)c2c1CS(=O)(=O)C/C2=C\c1ccc(F)cc1)N1CCCCC1` [Cpd 98, (7Z)-[1-(4-chloro-phenyl)-7-(4-fluoro-benzylidene)-5,5-dioxo-4,5,6,7-tetrahydro-1H-5λ^6-thiopyrano[4,3-c]pyrazol-3-yl]-piperidin-1-yl-methanone], the inhibition at 0.2 µM in assay [1] (setting [3]) was 14%; in assay [2] (setting [4]) it was 51%.

Take `COC[C@H]1CCCN1NC(=O)c1nn(-c2ccc(Cl)cc2Cl)c2c1CS(=O)(=O)C/C2=C\c1ccc(F)cc1` [Cpd 126, (7Z)-1-(2,4-dichloro-phenyl)-7-(4-fluoro-benzylidene)-5,5-dioxo-4,5,6,7-tetrahydro-1H-5λ^6-thiopyrano[4,3-c]pyrazole-3-carboxylic acid [(2R)-2-(methoxymethyl)-pyrrolidin-1-yl]-amide]: the inhibition at 0.2 µM came out at 0% in assay [1] (setting [3]) and 55% in assay [2] (setting [4]).

For the compound `O=C(NN1CCCCC1)c1nn(-c2ccc(F)cc2F)c2c1CS(=O)(=O)C/C2=C\c1ccc(F)cc1` [Cpd 106, (7Z)-1-(2,4-difluoro-phenyl)-7-(4-fluoro-benzylidene)-5,5-dioxo-4,5,6,7-tetrahydro-1H-5λ^6-thiopyrano[4,3-c]pyrazole-3-carboxylic acid piperidin-1-ylamide], the inhibition at 0.2 µM in assay [1] (setting [3]) was 6%; in assay [2] (setting [4]) it was 32%.

With `COC[C@@H]1CCCN1NC(=O)c1nn(-c2ccc(Cl)cc2Cl)c2c1CSC/C2=C\c1ccc(F)cc1` [Cpd 123, (7Z)-1-(2,4-dichloro-phenyl)-7-(4-fluoro-benzylidene)-1,4,6,7-tetrahydro-thiopyrano[4,3-c]pyrazole-3-carboxylic acid [(2S)-2-(methoxymethyl)-pyrrolidin-1-yl]-amide], the inhibition at 0.2 µM in assay [1] (setting [3]) came to 12%; in assay [2] (setting [4]), 61%.

Regarding `O=C(NNc1ccc(Cl)cc1Cl)c1nn(-c2ccc(Cl)cc2Cl)c2c1CS(=O)(=O)C/C2=C\c1ccc(F)cc1` [Cpd 53, (7Z)-1-(2,4-dichloro-phenyl)-7-(4-fluoro-benzylidene)-5,5-dioxo-4,5,6,7-tetrahydro-1H-5λ^6-thiopyrano[4,3-c]pyrazole-3-carboxylic acid N′-(2,4-dichloro-phenyl)-hydrazide], the figures for the inhibition at 0.2 µM in assay [1] (setting [3]) and in assay [2] (setting [4]) were 30% and 55%, respectively.

As usually defined, the IC50 is the concentration at which inhibition is half-maximal. Take `COC[C@@H]1CCCN1NC(=O)c1nn(-c2ccc(Cl)cc2Cl)c2c1CS(=O)(=O)C/C2=C\c1ccc(F)cc1` [Cpd 125, (7Z)-1-(2,4-dichloro-phenyl)-7-(4-fluoro-benzylidene)-5,5-dioxo-4,5,6,7-tetrahydro-1H-5λ^6-thiopyrano[4,3-c]pyrazole-3-carboxylic acid [(2S)-2-(methoxymethyl)-pyrrolidin-1-yl]-amide]: in assay [1] (setting [3]), the inhibition at 0.2 µM was found to be 8%. This compound also returned a concentration for half-maximal inhibition (IC50) in assay [2] of 58 nM.

As for `C[C@@H](NS(=O)(=O)/C=C/c1c2c(nn1Cc1ccccc1)CCSC2)c1ccccc1` [Cpd 2, (E)-2-(2-benzyl-2,4,6,7-tetrahydro-thiopyrano[4,3-c]pyrazol-3-yl)-ethenesulfonic acid [(1R)-1-phenyl-ethyl]-amide], the inhibition at 1 µM in assay [1] (test concentration 1 μM (superscript b)) turned out to be 0%; in assay [2] (test concentration 1 μM (superscript b), read-out: CB1 binding percent inhibition), 13%.

As for `C[C@@H](NC(=O)c1nn(-c2ccc(Cl)cc2Cl)c2c1CS(=O)(=O)C/C2=C\c1ccc(Cl)o1)C1CCCCC1` [Cpd 118, (7Z)-7-(5-chloro-furan-2-ylmethylene)-1-(2,4-dichloro-phenyl)-5,5-dioxo-4,5,6,7-tetrahydro-1H-5λ^6-thiopyrano[4,3-c]pyrazole-3-carboxylic acid [(1R)-1-cyclohexyl-ethyl]-amide], the inhibition at 0.2 µM in assay [1] (setting [3]) turned out to be 11%. The 50% inhibitory concentration (IC50) in assay [2] was found to be 8 nM.

Turning to `C[C@@H](NC(=O)c1nn(-c2ccc(Cl)cc2Cl)c2c1CSC/C2=C\c1ccc(Br)cc1)c1ccccc1` [Cpd 129, (7Z)-(4-Bromo-benzylidene)-1-(2,4-dichloro-phenyl)-1,4,6,7-tetrahydro-thiopyrano[4,3-c]pyrazole-3-carboxylic acid [(1R)-1-phenyl-ethyl]-amide], the inhibition at 0.2 µM in assay [1] is 26%. In assay [2], this compound showed an IC50 of 6 nM.
